# Experimental data reported in article PMC9774391 (ACS Omega, 2022).
# Tests used:
# [1] = molecular target: T1, AChE (Homo sapiens, UniProt P22303); experiment: biochemical; settings: for inhibition at 1000 µM: 10^–3 M; for inhibition at 100 µM: 10^–4 M; for inhibition at 10 µM: 10^–5 M; for inhibition at 1 µM: 10^–6 M; for inhibition at 0.1 µM: 10^–7 M; for inhibition at 0.01 µM: 10^–8 M; for inhibition at 0.001 µM: 10^–9 M
# Protocol: (§1) According to the modified Ellman approach outlined in our team’s earlier work, the AChE and BChE inhibitory activities of the obtained compounds were evaluated.[18]−[21]
# [2] = molecular target: T2, BChE (Homo sapiens, UniProt P06276); experiment: biochemical; settings: for inhibition at 1000 µM: 10^–3 M; for inhibition at 100 µM: 10^–4 M
# Protocol: as §1
# [3] = molecular target: T3, MAO-A (Homo sapiens, UniProt P21397); experiment: In vitro MAO-A inhibition assay (fluorometric); assay type: biochemical; settings: for inhibition at 1000 µM: 10^–3 M; for inhibition at 10 µM: 10^–5 M; for inhibition at 1 µM: 10^–6 M; for inhibition at 0.1 µM: 10^–7 M; for inhibition at 0.01 µM: 10^–8 M; for inhibition at 0.001 µM: 10^–9 M; for fold stronger MAO-A inhibition compared to moclobemide: ratio of IC50 values
# T3 sequence (P21397 1-527): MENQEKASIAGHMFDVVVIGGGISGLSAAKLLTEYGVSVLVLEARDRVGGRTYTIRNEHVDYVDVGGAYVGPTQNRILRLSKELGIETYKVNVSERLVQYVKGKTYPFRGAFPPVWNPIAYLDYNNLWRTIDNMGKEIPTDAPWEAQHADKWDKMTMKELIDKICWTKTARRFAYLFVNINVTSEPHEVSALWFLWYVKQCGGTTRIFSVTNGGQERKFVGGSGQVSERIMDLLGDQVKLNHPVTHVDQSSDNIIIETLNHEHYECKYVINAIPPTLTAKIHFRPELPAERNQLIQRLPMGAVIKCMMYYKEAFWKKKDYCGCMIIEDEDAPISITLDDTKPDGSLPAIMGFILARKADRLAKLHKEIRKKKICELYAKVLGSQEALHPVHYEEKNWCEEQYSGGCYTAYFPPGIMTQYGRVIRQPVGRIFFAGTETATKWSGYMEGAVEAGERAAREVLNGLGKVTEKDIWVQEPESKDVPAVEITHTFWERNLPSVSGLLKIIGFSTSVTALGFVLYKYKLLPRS
# [4] = molecular target: T4, MAO-B (Homo sapiens, UniProt P27338); experiment: In vitro MAO-B inhibition assay (fluorometric); assay type: biochemical; settings: for inhibition at 1000 µM: 10^–3 M; for inhibition at 100 µM: 10^–4 M; for inhibition at 10 µM: 10^–5 M; for inhibition at 1 µM: 10^–6 M; for inhibition at 0.1 µM: 10^–7 M; for inhibition at 0.01 µM: 10^–8 M; for inhibition at 0.001 µM: 10^–9 M
# T4 sequence (P27338 1-520): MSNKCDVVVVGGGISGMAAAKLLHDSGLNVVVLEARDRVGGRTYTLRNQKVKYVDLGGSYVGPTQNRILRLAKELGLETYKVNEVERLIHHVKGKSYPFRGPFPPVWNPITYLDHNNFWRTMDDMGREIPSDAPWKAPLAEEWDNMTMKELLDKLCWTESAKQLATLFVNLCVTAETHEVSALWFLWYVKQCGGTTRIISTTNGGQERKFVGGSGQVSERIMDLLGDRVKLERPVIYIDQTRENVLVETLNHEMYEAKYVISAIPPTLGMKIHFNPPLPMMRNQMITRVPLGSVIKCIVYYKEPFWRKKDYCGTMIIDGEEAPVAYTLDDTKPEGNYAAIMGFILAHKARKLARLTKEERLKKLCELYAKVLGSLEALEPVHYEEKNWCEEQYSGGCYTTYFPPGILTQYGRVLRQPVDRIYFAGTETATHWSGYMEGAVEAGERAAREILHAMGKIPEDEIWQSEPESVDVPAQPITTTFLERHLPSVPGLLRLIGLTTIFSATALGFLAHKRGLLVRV
# [5] = molecular target: T2, BChE; experiment: Enzyme kinetics on BChE (Lineweaver–Burk); assay type: biochemical
# Protocol: (§2) The experimental procedures used in the kinetic investigations were identical to those used in the inhibition experiments. […]. Acetylthiocholine iodide (ATC) and butyrylthiocholine iodide (BTC) solutions were utilized as the substrates for the ChE enzymes, with serial dilutions at six different concentrations (600, 300, 150, 75, 37.5, and 18.75 μM). The tyramine substrate solution (concentrations ranging from 20 to 0.625 μM) was produced for the MAO enzymes at six different concentrations. Separate measurements were conducted both with and without an inhibitor. Using the Microsoft Office Excel 2013 program, the resulting absorbance values were compared to various substrate concentrations, and Lineweaver–Burk plots were created.[19]−[22]
# (§3) The absorbance data from the experiments and the substrate concentrations were used to generate Lineweaver–Burk plots. The graphic’s x-axis stands for 1/[S] […] […]. The intersection of these four lines on the diagram was used to define the type of substrate and inhibitor reaction against the enzyme.
# (§4) Reversible and irreversible inhibition of enzymes are the two categories that inhibition is commonly subdivided into. In irreversible inhibition, the inhibitor either creates a recalcitrant complex structure or establishes a covalent bond with the enzyme. […]
# [6] = molecular target: T5, Beta Amyloid 1–42 (Aβ42) (Homo sapiens, UniProt P05067); experiment: Beta Amyloid 1–42 (Aβ42) inhibitor screening assay; assay type: biochemical; settings: for inhibition at 1000 µM: 10^–3 M; for inhibition at 1000 µM / inhibition at 100 µM: read-out: % β-amyloid plaque inhibition; for inhibition at 100 µM: 10^–4 M; for IC50: read-out: IC50 on β-amyloid plaque aggregation
# T5 construct: The Beta Amyloid 1–42 (Aβ42) Ligand Screening Assay kit; purchased BioVision, Milpitas, CA
# Excerpt: The Beta Amyloid 1–42 (Aβ42) Ligand Screening Assay kit (BioVision, Milpitas, CA) technique based on the fluorometric approach served as the basis for the experimental process.[21],[28],[29]
# [7] = Cytotoxicity test (MTT); assay type: cell-based; settings: NIH/3T3 mouse embryonic fibroblast cells (ATCC CRL-1658), NIH/3T3 mouse fibroblast healthy cell line
# Protocol: The NIH/3T3 cells were incubated according to the manufacturer’s recommendations. In 96-well plates, NIH/3T3 cells were seeded at a density of 1 × 10^4 cells per well. The MTT test was conducted in line with the previously mentioned standards.[19],[22],[23],[28],[30]
# [8] = molecular target: T3, MAO-A; experiment: Enzyme kinetics on MAO-A (Lineweaver–Burk); assay type: biochemical
# Protocol: as §2, §3, §4
# [9] = DPPH free-radical scavenging activity assay; settings: serial dilution 10^–3–10^–9 M; read-out: IC50 on DPPH antioxidant activity
# Protocol: This approach is based on evaluating the free-radical scavenging abilities of the stable 1,1-diphenyl-2-picrylhydrazyl (DPPH) radical. To create the DPHH solution, 9.86 mg of DPPH was weighed and diluted to 25 mL with methanol. The test wells were then filled with 100 μL of the DPPH solution and 100 μL of the test solutions. Only 200 μL of methanol was used for the blank reading, while the control reading required the usage of 100 μL each of methanol and the DPPH solution. Following incubation, a spectrophotometric measurement at 517 nm was carried out.[26],[27]
# [10] = molecular target: T1, AChE; experiment: Enzyme kinetics on AChE (Lineweaver–Burk); assay type: biochemical
# Protocol: as §2, §3, §4
# T2 sequence (P06276 29-602): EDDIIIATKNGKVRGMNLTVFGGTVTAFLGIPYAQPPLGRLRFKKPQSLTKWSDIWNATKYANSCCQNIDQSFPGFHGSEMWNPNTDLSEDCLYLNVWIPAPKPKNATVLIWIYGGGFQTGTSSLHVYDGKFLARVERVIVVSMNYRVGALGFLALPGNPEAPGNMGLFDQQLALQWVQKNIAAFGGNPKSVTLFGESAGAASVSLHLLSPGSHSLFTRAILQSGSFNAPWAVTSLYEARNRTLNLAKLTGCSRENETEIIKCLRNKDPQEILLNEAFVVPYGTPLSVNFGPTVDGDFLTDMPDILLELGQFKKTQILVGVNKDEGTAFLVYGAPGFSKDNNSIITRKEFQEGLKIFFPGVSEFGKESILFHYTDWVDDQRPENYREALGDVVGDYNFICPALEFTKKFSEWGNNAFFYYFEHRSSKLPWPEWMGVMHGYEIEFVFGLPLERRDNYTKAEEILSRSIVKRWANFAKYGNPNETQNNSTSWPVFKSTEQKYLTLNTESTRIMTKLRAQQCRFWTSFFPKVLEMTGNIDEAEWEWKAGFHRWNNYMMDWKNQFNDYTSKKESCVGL
# T1 sequence (P22303 32-614): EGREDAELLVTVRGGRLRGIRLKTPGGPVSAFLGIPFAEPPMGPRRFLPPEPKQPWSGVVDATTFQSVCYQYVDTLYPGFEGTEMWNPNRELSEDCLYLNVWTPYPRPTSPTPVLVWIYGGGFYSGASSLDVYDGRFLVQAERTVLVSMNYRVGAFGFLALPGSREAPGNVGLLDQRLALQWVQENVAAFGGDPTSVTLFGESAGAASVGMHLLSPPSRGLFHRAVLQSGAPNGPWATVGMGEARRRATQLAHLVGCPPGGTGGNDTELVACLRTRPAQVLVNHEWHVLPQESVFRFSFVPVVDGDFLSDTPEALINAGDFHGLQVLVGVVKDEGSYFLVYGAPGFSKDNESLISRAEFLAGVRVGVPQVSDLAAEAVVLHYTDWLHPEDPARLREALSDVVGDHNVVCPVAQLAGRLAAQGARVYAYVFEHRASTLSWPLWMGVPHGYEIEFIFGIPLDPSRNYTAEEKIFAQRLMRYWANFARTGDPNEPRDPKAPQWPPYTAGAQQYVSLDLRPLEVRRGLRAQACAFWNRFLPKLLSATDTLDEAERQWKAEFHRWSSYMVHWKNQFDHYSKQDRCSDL
# T5 sequence (P05067 672-713 limits assumed): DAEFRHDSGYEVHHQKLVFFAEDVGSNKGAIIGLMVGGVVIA
Compound,IC50 [1] [nM],inhibition at 1000 µM [1] [%],inhibition at 100 µM [1] [%],inhibition at 10 µM [1] [%],inhibition at 1 µM [1] [%],inhibition at 0.1 µM [1] [%],inhibition at 0.01 µM [1] [%],inhibition at 0.001 µM [1] [%],inhibition at 1000 µM [2] [%],inhibition at 100 µM [2] [%],inhibition at 1000 µM [3] [%],IC50 [4] [nM],inhibition at 1000 µM [4] [%],inhibition at 100 µM [4] [%],inhibition at 10 µM [4] [%],inhibition at 1 µM [4] [%],inhibition at 0.1 µM [4] [%],inhibition at 0.01 µM [4] [%],inhibition at 0.001 µM [4] [%],inhibition at 1000 µM [6] [%],further results
COc1cc2c(cc1OC)C(=O)/C(=C/c1ccc(NC(=O)CN(C)CCCN(C)C)cc1)C2 [D39],45.8 ± 0.9,92.6 ± 1.62,88.7 ± 1.19,81.7 ± 1.16,73.3 ± 0.952,64.3 ± 0.687,40.2 ± 0.528,20.5 ± 0.492,92.8 ± 1.36,87.3 ± 1.25,89.8 ± 1.44,39.3 ± 1.1,95.3 ± 1.06,87.2 ± 1.82,84.8 ± 1.64,78.6 ± 1.25,60.2 ± 0.956,36.2 ± 0.488,25.6 ± 0.359,≥ 80,"IC50 [2]: 75 ± 3.2 nM; inhibition at 10 µM ([2]; 10^–5 M): 81.4 ± 1.33%; inhibition at 1 µM ([2]; 10^–6 M): 73.7 ± 1.15%; inhibition at 0.1 µM ([2]; 10^–7 M): 55.4 ± 0.678%; inhibition at 0.01 µM ([2]; 10^–8 M): 34.7 ± 0.511%; inhibition at 0.001 µM ([2]; 10^–9 M): 21.6 ± 0.485%; inhibition at 100 µM ([3]; 10^–4 M): 36.2 ± 0.756%; type of inhibition of BChE ([5]; Lineweaver–Burk plots): mixed inhibition; Ki ([5]; secondary plot of Lineweaver–Burk data, read-out: steady-state inhibition constant (Ki), BChE): 61.7 nM; inhibition at 100 µM [6]: 69.8 ± 0.778%; IC50 [6]: 197 ± 7.9 nM; IC50 [7]: 12300 ± 416 nM"
CCCN(C)CC(=O)Nc1ccc(/C=C2\Cc3cc(OC)ccc3C2=O)cc1 [D28],24.8 ± 1,98.6 ± 1.21,95.3 ± 1.31,92.8 ± 1.03,87.1 ± 1.06,72 ± 0.958,36 ± 0.623,19.4 ± 0.455,61.3 ± 0.997,36.6 ± 0.667,89.6 ± 1.29,40.9 ± 1.9,92.6 ± 1.33,89.3 ± 1.24,80.5 ± 1.01,75.2 ± 1.08,67 ± 0.958,41.5 ± 0.547,18.8 ± 0.421,82.7 ± 1.68,"IC50 [3]: 111 ± 4.7 nM; inhibition at 10 µM [3]: 72.7 ± 1.11%; inhibition at 1 µM [3]: 63.4 ± 1.08%; inhibition at 0.1 µM [3]: 59 ± 0.895%; inhibition at 0.01 µM [3]: 39.2 ± 0.714%; inhibition at 0.001 µM [3]: 18.7 ± 0.521%; fold stronger MAO-A inhibition compared to moclobemide [3]: 50 ×; type of inhibition of MAO-A ([8]; Lineweaver–Burk plots): noncompetitive inhibition; Ki ([8]; secondary plot of Lineweaver–Burk data, read-out: steady-state inhibition constant (Ki), MAO-A): 107 nM; IC50 [9]: 210 ± 10 nM; inhibition at 100 µM [6]: 75.6 ± 1.04%; IC50 [6]: 147 ± 5.3 nM; IC50 [7]: 6520 ± 175 nM"
CCCN(C)CC(=O)Nc1ccc(/C=C2\Cc3ccc(OC)cc3C2=O)cc1 [D29],22.4 ± 0.8,97.2 ± 1.32,94.3 ± 1.46,91.8 ± 1.21,88.3 ± 1.02,75.6 ± 0.974,34.3 ± 0.857,20.1 ± 0.357,61.1 ± 0.99,26.914 ± 0.019,≥ 90,41.2 ± 1.8,91.8 ± 1.37,87.6 ± 1.25,82.2 ± 1.21,74.2 ± 1.3,66 ± 1.84,40.3 ± 0.745,20.4 ± 0.628,80.3 ± 2.05,"IC50 [3]: 112 ± 4.2 nM; inhibition at 10 µM [3]: 77.4 ± 1.13%; inhibition at 1 µM [3]: 67.3 ± 1.08%; inhibition at 0.1 µM [3]: 49.4 ± 0.567%; inhibition at 0.01 µM [3]: 34 ± 0.422%; inhibition at 0.001 µM [3]: 24.6 ± 0.328%; fold stronger MAO-A inhibition compared to moclobemide [3]: 50 ×; type of inhibition of AChE ([10]; Lineweaver–Burk plots): mixed inhibition; Ki ([10]; secondary plot of Lineweaver–Burk data, read-out: steady-state inhibition constant (Ki), AChE): 18.5 nM; IC50 [9]: 188 ± 8 nM; inhibition at 100 µM [6]: 71.9 ± 1.88%; IC50 [6]: 124 ± 4.9 nM; IC50 [7]: 73600 ± 1760 nM"
